How the values were obtained:
[1] = tested on: H3K9 acetylation; test: H3K9 acetylation Western blot in human NPCs and neurons; format: cell-based; conditions: ACY-1215 5 μM, tubastatin A 10 μM, CI-994 10 μM, Cpd-60 5 μM (Figure S1)
[2] = tested on: PGRN protein; format: cell-based, human
[3] = tested on: HDAC; conditions: ref Schroeder et al., 2013; Chou et al., 2008; cited from earlier work
[4] = tested on: MSR293 cells; test: GRN mRNA / PGRN expression in MSR293 cells; format: cell-based, human; conditions: MSR293 cells (HEK293 derivative), Figure S3
[5] = tested on: FXN mRNA; test: FXN; format: cell-based, human; conditions: 18-day neurons, 24 h; SAHA 10 μM, CI-994 10 μM, Cpd-60 5 μM
[6] = tested on: GRN mRNA; test: GRN mRNA expression by qPCR in human iPSC-derived NPCs and neurons; format: cell-based
[7] = tested on: H3K27 acetylation on GRN promoter; test: H3K27 acetylation ChIP-qPCR on GRN promoter/enhancer region in NPCs; format: cell-based, human; conditions: 24 hours, panobinostat 0.5 μM, CI-994 10 μM; for H3K27 acetylation in ChIP Region 3: to varying levels
[8] = tested on: recombinant human Class I HDACs (HDAC1, HDAC2, HDAC3); test: In vitro HDAC enzymatic assay with varied pre-incubation time; format: biochemical; conditions: pre-incubation 0–3 hours, Figure S5
[9] = 2010, cited from earlier work
[10] = human NPCs, CI-994 for up to 72 hours
[11] = human neurons, CI-994 10 μM, 24 h

O=C(CCCCCCNC(=O)c1cnc(N(c2ccccc2)c2ccccc2)nc1)NO [ACY-1215]
H3K9 acetylation [1]: as strong of an induction

CC(=O)Nc1ccc(C(=O)Nc2ccccc2N)cc1 [CI-994]
intracellular PGRN ([2]; NPCs, CI-994 10 μM, 24 h): decrease | secreted PGRN ([2]; NPCs, CI-994 10 μM, 24 h): decrease | PGRN secreted protein expression, longer treatment times ([2]; NPCs, CI-994 10 μM, longer treatment times, vs vehicle): decreased | PGRN protein levels, extended treatment [2, 10]: did not significnatly enhance | intracellular PGRN protein [2, 11]: statistically significant decrease | binding kinetics, mechanism of action [3]: slow-on/slow-off | upregulating GRN mRNA or PGRN [4]: ineffective | FXN (frataxin) mRNA levels [5]: significantly increased | GRN mRNA levels, extended treatment [6, 10]: did not significnatly enhance | GRN mRNA [6, 11]: statistically significant decrease | H3K27 acetylation in ChIP Region 2 [7]: Neither compound treatment increased | H3K27 acetylation in ChIP Region 3 [7]: increased | H3K9 acetylation [1]: significantly increase | change of potency with prolonged incubation (in vitro kinetic profile) [8]: slow-binder

O=C(CCCCCCC(=O)Nc1ccccc1)NO [SAHA]
upregulating GRN mRNA or PGRN [4]: effective | FXN (frataxin) mRNA levels [5]: does not

O=C(NCC1(c2nc(-c3ccccc3)cs2)CCOCC1)c1cccc(-c2noc(C(F)(F)F)n2)c1 [TMP269]
increasing GRN mRNA in NPCs ([6]; NPCs only (Figure S2)): not effective

CN1CCc2c(c3ccccc3n2Cc2ccc(C(=O)NO)cc2)C1 [Tubastatin A]
H3K9 acetylation [1]: robust effect

CCC(=O)CCCCC[C@@H]1NC(=O)[C@H]2CCCCN2C(=O)[C@H]([C@@H](C)CC)NC(=O)[C@H](Cc2cn(OC)c3ccccc23)NC1=O [apicidin]
change of potency with prolonged incubation (in vitro kinetic profile) [8]: did not increase

Cc1[nH]c2ccccc2c1CCNCc1ccc(/C=C/C(=O)NO)cc1 [panobinostat]
H3K27 acetylation in ChIP Region 1 on the GRN promoter [7]: significantly increased | H3K27 acetylation in ChIP Region 2 [7]: Neither compound treatment increased | H3K27 acetylation in ChIP Region 3 [7]: increased

CCCC(CCC)C(=O)O [valproate, valproic acid]
increase of PGRN protein expression compared to vehicle ([2]; cultured NPCs and neurons, valproate at doses lower than 1 mM (Figure S8)): 1.3–1.5 × | serum concentration ([9]; chronic treatment, ref Kalu): 300 to 700 µM | Cmax ([9]; read-out: brain concentration Cmax, estimated, ref Goldenberg): 400 µM | change of potency with prolonged incubation (in vitro kinetic profile) [8]: did not increase
